From patent publication US12616713B2, “Methods for enhancing vascular density” (priority 2016, dated 2026)
Entries after “also recorded” stand apart in the source; their conditions may differ.

Tests used:
[1] = test system: Notch signaling; assay: Notch target genes and NICD in VEGF- or Dll4-stimulated HAECs; type: cell-based, human
Description: Dll4 and VEGF stimulation of ECs. The ECs to be stimulated were serum-starved overnight and transferred to media containing VEGF (50 ng/mL) or to Dll4-coated plates, and then incubated for indicated time. Dll4 coating was performed as described before (Guarani et al., 2011, Nature 473, 234-238). Lyophilized recombinant Dll4 (R&D Systems) were reconstituted in PBS containing 0.1% bovine serum albumin. The culture dishes were coated with Dll4 (0.5 μg/mL) in 0.1 gelatin solution for 1 hr at 37° C.
Total mRNA was isolated from cells and tissues using TRIzol (Life Technologies). cDNAs were synthesized from 1 μg of total RNA using M-MLV reverse transcriptase (Biorad). qPCR was performed with LightCycler […] SYBR Green I Mastermix (Roche) using the LightCycler 480 System (Roche) according to the manufacturer's instructions. Relative mRNA expression levels were calculated using the ΔΔCt method.
SDS-PAGE and Western blot analysis were performed according to standard procedures and detected with the ECL detection kit (Bio-rad, Australia). […] Quantification of band intensities by densitometry was carried out using ImageJ software.

[2] = test system: aortic rings from 18-month old mice; assay: Aortic ring assay (ex vivo angiogenesis); type: cell-based, mouse; conditions: 18-month old WT mice, VEGF 30 ng/mL, NMN 0.5 mM, 7 days, versus PBS
Description: Aortic ring assay was performed according to the published protocol (Baker et al., 2012, Nat Protoc 7, 89-104). Briefly, thoracic aortas from mice were excised and transferred to Opti-MEM media. All extraneous fat, tissue and branching vessels were removed with forceps and a scalpel under a dissection microscope. The aortas were cut into ˜0.5 mm wide rings and serum starved overnight by incubating in Opti-MEM at 37° C./5% CO2. Next day, each aortic ring was embedded in 50 μL collagen matrix in a 96-well plate and incubated at 37° C./5% CO2 for 1 h. After embedding, the vessel sprouting was stimulated by supplementing the rings with 150 μL of Opti-MEM culture containing FBS (2.5%), with or without VEGF (30 ng/mL), or FGF (30 ng/mL) and incubating at 37° C./5% CO2 for 7 days. NMN (500 μM) was added to the media wherever mentioned and replaced every 3 days. The resulting sprouts were stained with BS1 lectin-FITC (Sigma) and imaged using fluorescence microscope. The number and total area of sprouts originating from aortic rings were quantified by ImageJ software.

[3] = test system: C57BL/6J mice; assay: Skeletal muscle capillaries by CD31/laminin immunofluorescence in old mice; type: in vivo, mouse; conditions: NMN 400 mg/kg/day, two months
Description: SIRT1-iKO, SIRT1-Tg and SIRT1^STOP mice were described previously (Firestein et al., 2008, PLoS One 3, e2020; Price et al., 2012, Cell Metab 15, 675-690). Tie2Cre and Sirt1^flox/flox mice were purchased from Jackson Laboratory (Bar Harbor, ME). MCK-PGC-1α and MyogCre mice were gifts from Dr. Bruce Spiegelman (Dana Farber Cancer Center, MA) and Dr. Eric N. Olson (UT Southwestern, Dallas, TX), respectively. mT-STOP^flox/flox, Gfp mouse was generated in house by E.O.W., which consists of an allele driven by ubiquitous actin B promoter, which has loxP sites flanking membrane-targeted tandem dimer Tomato (mT) and transcriptional STOP cassette, followed by a GFP coding sequence. […] SIRT1-iKO mice were fed tamoxifen (360 mg/kg) diet for five weeks to elicit whole-body SIRT1 exon 4 excision as described previously (Price et al., 2012). […] NMN stock was changed twice per week and […]4137 was supplemented daily. Axitinib (30 mg/kg/day) was given via food and changed daily. Freshly isolated whole quadriceps and gastrocnemius muscle samples were mounted in OCT compound (Tissue-Tek), placed in an isopentane bath and slowly cooled in liquid nitrogen. Transverse sections at 20 μm-thickness were sectioned on a cryostat (Leica). The sections were fixed in pre-cooled acetone (-20° C.) for 10 min and washed with PBS. […] Slides were washed with PBST and then incubated with anti-rat Alexa Fluor 488-conjugated (Life Technologies) and anti-rabbit Alexa Fluor 594-conjugated (Life Technologies) antibodies diluted to 1:500 in blocking buffer for 2 h at room temperature. Slides were washed again with PBST and mounted with Fluoroshield with DAPI mounting medium (Sigma). Images were acquired using a confocal fluorescence microscope (Nikon A1). Quantification of capillaries and capillary density were performed using ImageJ software. TUNEL staining was performed in muscle sections using in situ BrdU-Red DNA fragmentation (TUNEL) assay kit (Abcam) as per manufacturer's protocol.

[4] = test system: human aortic endothelial cells (HAECs); assay: Tube formation assay, HAECs; type: cell-based
Description: Formation of tube networks was assessed as described before (Borradaile and Pickering, 2009, Aging Cell 8, 100-112). ECs were seeded at 10,000 cells per well in a 24-well plate (Corning) coated with 150 μL Cultrex reduced growth factor basement membrane extract (Trevigen). The cells were supplemented with C2C12 CM or EBM-2 medium containing VEGF (30 ng/mL) or FGF (30 ng/mL). […] Following an 18 h-incubation, resulting tube networks were analyzed by light microscopy (Nikon Eclipse TiE). For tube formation assays with H2O2 treatment, cells were incubated with 150 μM H2O2 for 1 h before seeding and imaged after 10 h-incubation. The number of branch points and total length of tubule networks were quantified by ImageJ software.

[5] = test system: C57BL/6J mice; assay: Post-exercise blood lactate; type: in vivo, mouse; conditions: 20-month old mice
Description: Mice were fasted for 6 h and blood glucose levels were measured by tail bleed (Accu Check Performa, Roche). Blood lactate was measured before and immediately after treadmill exercise training for 20 minutes at 15 meters/minute by tail bleed (Accutrend Plus, Roche). For VEGF analysis, whole blood was drawn from the retroorbital sinus under brief isoflurane anesthesia. The serum was collected and assayed for VEGF expression by ELISA (Eve Technologies, Canada). Urine was collected after a 2 h fast and analyzed for creatinine levels using a colorimetric assay kit (Cayman chemical, US) as per manufacturer's protocol.

[6] = NMN and VEGF (30 ng/mL) cotreatment of HAECs, compared to VEGF alone

Compound: NC(=O)c1ccc[n+]([C@@H]2O[C@H](COP(=O)([O-])O)[C@@H](O)[C@H]2O)c1 [NMN, nicotinamide mononucleotide]
- NICD protein levels ([1]; VEGF- or Dll4-stimulated HAECs, NMN 0.5 mM): promoted NICD reduction
- Notch target gene expression ([1]; after stimulation with VEGF (50 ng/mL) or Dll4, NMN 0.5 mM): significantly decreased
- number of VEGF-mediated outgrowths or sprouts per aortic ring [2]: doubled
- gastrocnemius capillarity ([3]; 20-month old WT mice): increased capillaries; also recorded: increased gastrocnemius capillarity
- gastrocnemius capillarity ([3]; 20-month old tamoxifen-treated SIRT1-iKO mice): not in SIRT1-iKO mice; also recorded: no change
- number of capillaries and capillary density (quadriceps, gastrocnemius) ([3]; old mice): restored
- number of branch points and total length of tubes ([4]; NMN 10 μM, 100 μM or 500 μM versus PBS): steadily increased
- increase in number of branch points [4, 6]: 32%
- increase in tubule length [4, 6]: 15%
- increase in number of branch points ([4]; NMN itself, without VEGF): 25%
- ability of NMN to stimulate tube formation, dependence on SIRT1 ([4]; NT or SIRT1 siRNA, VEGF 30 ng/mL, NMN 0.5 mM): SIRT1-dependent
- effects of NMN on VEGF-mediated tube formation after knockdown of SIRT1 ([4]; Scr or SIRT1 siRNA, NMN 500 μM): completely blocked by knockdown of SIRT1
- VEGF-mediated tube formation after knockdown of SIRT3 and SIRT6 ([4]; T3 or T6 siRNA, VEGF 30 ng/mL, +/- NMN): partially rescued
- disintegration of tubes ([4]; time-lapse videos, extended 18 h period): prevented the disintegration of tubes
- post-exercise blood lactate [5]: 3.9 mmol/L
